# Laboratory results taken from ChEMBL document CHEMBL6092135, “Current development and structure-activity relationship study of berberine derivatives” (Bioorg Med Chem, 2024).
# Key:
# Candida albicans [1] = test: Antifungal activity against Candida albicans ATCC 10231 assessed as reduction in fungal growth by NCCLS method; format: functional
# Cryptococcus neoformans = test: Antifungal activity against Cryptococcus neoformans assessed as fungal growth inhibition by CLSI based method; format: functional
# Aspergillus niger = test: Antifungal activity against Aspergillus niger assessed as inhibition of fungal growth incubated for 48 hrs by CLSI protocol based analysis; format: functional
# HepG2 [2] = test: Antiproliferative activity against human HepG2 cells assessed as reduction in cell growth; format: functional, cell-based
# CEM-VCR = test: Antiproliferative activity against human CEM-VCR cells assessed as reduction in cell growth; format: functional, cell-based
# [3] = Antiproliferative activity against human QGY-7701 cells assessed as reduction in cell growth; format: functional, cell-based; settings: QGY7701
# [4] = test system: Lewis lung carcinoma cell line; test: Cytotoxicity against mouse Lewis lung carcinoma cell line; format: functional, cell-based
# SMMC-7721 = test: Antiproliferative activity against human SMMC-7721 cells assessed as reduction in cell growth; format: functional, cell-based
# HCT-116 = test: Cytotoxicity against human HCT-116 cells assessed as reduction in cell viability incubated for 24 hrs by MTT assay; format: functional, cell-based; settings: HCT-116, 24 h
# HepG2 [5] = test: Cytotoxicity against human HepG2 cells assessed as reduction in cell viability by MTT assay; format: functional, cell-based
# HT-29 = test: Antiproliferative activity against human HT-29 cells assessed as reduction in cell viability incubated for 24 hrs by MTT assay; format: functional, cell-based; settings: HT-29, 24 h
# C6 = test: Antiproliferative activity against rat C6 cells assessed as inhibition of cell growth incubated for 72 hrs by Sulforhodamine B assay; format: functional, cell-based; settings: C6, 72 h
# BFTC-905 = test: Antiproliferative activity against human BFTC-905 cells assessed as reduction in cell viability; format: functional, cell-based
# Candida albicans [6] = test: Antifungal activity against Candida albicans assessed as reduction in fungal growth incubated for 12 hrs by microdilution method; format: functional
# Ca-Ski = test: Cytotoxicity against human Ca-Ski cells assessed as reduction in cell viability measured after 48 hrs by SRB assay; format: functional, cell-based
# [7] = Antioxidant activity assessed as DPPH radical scavenging activity measured for 30 mins by spectrophotometric analysis; format: functional
# HeLa [8] = test: Cytotoxicity against human HeLa cells assessed as reduction in cell viability measured after 48 hrs by SRB assay; format: functional, cell-based
# Listeria monocytogenes = test: Antibacterial activity against Listeria monocytogenes ATCC 19111 assessed as reduction in bacterial growth incubated for 20 to 24 hrs by microbroth serial dilution assay; format: functional; settings: time 20-24 hrs
# Salmonella typhimurium = test: Antimicrobial activity against Salmonella enterica subsp. enterica serovar Typhimurium LT2 assessed as inhibition of bacterial growth measured for 24 hrs by broth micro-dilution method; format: functional
# Plasmodium falciparum = test: Antiplasmodial activity against Plasmodium falciparum 3D7 assessed as inhibition of parasite growth measured for 42 hrs by SYBR Green staining based fluorescence analysis; format: functional, organism-based; settings: 3D7, 42 h
# A549 [9] = test: Antiproliferative activity against human A549 cells assessed as reduction in cell viability incubated for 24 hrs by CCK-8 assay; format: functional, cell-based; settings: A549, 24 h
# HeLa [10] = test: Anticancer activity against human HeLa cells; format: functional, cell-based
# A549 [11] = test: Anticancer activity against human A549 cells; format: functional, cell-based
# DNA topoisomerase 1 = DNA topoisomerase 1 (Homo sapiens, UniProt P11387); test: Inhibition of Topoisomerase 1 (unknown origin)
# Chain of DNA topoisomerase 1 (P11387 whole entry): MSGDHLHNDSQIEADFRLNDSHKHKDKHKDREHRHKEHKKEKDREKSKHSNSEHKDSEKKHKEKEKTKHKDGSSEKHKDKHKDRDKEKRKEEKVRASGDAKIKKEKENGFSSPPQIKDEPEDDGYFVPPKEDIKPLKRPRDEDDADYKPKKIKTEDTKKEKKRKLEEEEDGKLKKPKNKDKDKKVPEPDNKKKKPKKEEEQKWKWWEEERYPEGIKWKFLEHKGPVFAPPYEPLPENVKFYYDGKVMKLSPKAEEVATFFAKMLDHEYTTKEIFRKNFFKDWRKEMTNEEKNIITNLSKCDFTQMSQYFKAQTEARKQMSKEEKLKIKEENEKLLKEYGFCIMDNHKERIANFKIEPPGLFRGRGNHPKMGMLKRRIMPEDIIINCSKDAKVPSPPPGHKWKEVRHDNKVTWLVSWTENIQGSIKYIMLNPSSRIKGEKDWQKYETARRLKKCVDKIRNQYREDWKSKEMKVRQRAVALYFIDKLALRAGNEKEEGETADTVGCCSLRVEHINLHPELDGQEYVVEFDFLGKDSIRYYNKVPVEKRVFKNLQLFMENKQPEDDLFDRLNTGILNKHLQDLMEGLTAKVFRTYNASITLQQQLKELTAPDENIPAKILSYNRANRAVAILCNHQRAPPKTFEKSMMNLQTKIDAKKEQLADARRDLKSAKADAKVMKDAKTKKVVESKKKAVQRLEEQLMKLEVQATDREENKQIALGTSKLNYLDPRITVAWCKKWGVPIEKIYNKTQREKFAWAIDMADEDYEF
# Escherichia coli = test: Antibacterial activity against Escherichia coli ATCC 25922 assessed as bacterial growth inhibition measured after 48 hrs by resazurin assay; format: functional
# Enterovirus A71 = test: Antiviral activity against human EV71 infected in human RD cells assessed as inhibition of cytopathic effect by microscopy based analysis; format: functional, organism-based; settings: Enterovirus A
# CCRF-CEM = test: Antiproliferative activity against human CEM cells assessed as reduction in cell viability measured after 3 to 4 days by MTT assay; format: functional, cell-based
# [12] = test system: Mycobacterium tuberculosis; test: Antimycobacterial activity against Mycobacterium tuberculosis H37Rv assessed as reduction in bacterial growth incubated for 7 days by resazurin based assay; format: functional; settings: 168 h, time 7 day
# Coxsackievirus B3 = test: Antiviral activity against Coxsackievirus B3 infected in human HEp-2 cells assessed as inhibition of virus-induced cytopathic effect measured after 48 hrs by MTT assay; format: functional, organism-based; settings: Enterovirus B, HEp-2, 48 h
# Enterococcus faecium = test: Antibacterial activity against Enterococcus faecium ATCC 19434 assessed as reduction in microbial growth measured after 24 hrs by two-fold serial dilution method; format: functional
# Enterococcus faecalis = test: Antibacterial activity against Enterococcus faecalis ATCC 29212 assessed as reduction in microbial growth after 16 hrs by broth microdilution method; format: functional
# Bacillus cereus = test: Antibacterial activity against Bacillus cereus ATCC 27348 assessed as inhibition of bacterial growth incubated for 18 hrs by microdilution method; format: functional
# Staphylococcus aureus [13] = test: Antibacterial activity against Staphylococcus aureus ATCC 25923 assessed as reduction in bacterial growth incubated for 24 hrs by serial dilution method; format: functional
# Bacillus anthracis = test: Antibacterial activity against Bacillus anthracis; format: functional
# Staphylococcus aureus [14] = test: Antibacterial activity against Staphylococcus aureus ATCC 25923 assessed as reduction in microbial growth measured after 24 hrs by spectrophotometric method; format: functional
structure (smiles),measurement,setting,value
COc1ccc2c(Cc3ccc(C(C)(C)C)cc3)c3[n+](cc2c1OC)CCc1cc2c(cc1-3)OCO2,MIC,Candida albicans [1],1.56 mg/L
CCCCOc1c(OC)ccc2c(Cc3ccc(C(C)C)cc3)c3[n+](cc12)CCc1cc2c(cc1-3)OCO2.[Cl-],MIC,Cryptococcus neoformans,0.25 mg/L
same,MIC,Aspergillus niger,0.25 mg/L
CCCCCCCCc1c2[n+](cc3c(OC)c(OC)ccc13)CCc1cc3c(cc1-2)OCO3,IC50,HepG2 [2],0.02 µM
same,IC50,CEM-VCR,0.02 µM
same,IC50,[3],0.02 µM
same,IC50,[4],0.02 µM
same,IC50,SMMC-7721,0.02 µM
COc1ccc2c(c[n+]3c4c2ccc2c5c(cc(c24)CC3)OCO5)c1OC(=O)c1ccccc1,IC50,HCT-116,0.47 µM
CCCCCCCCCCCCc1c2[n+](cc3c(OC)c(OC)ccc13)CCc1cc3c(cc1-2)OCO3,IC50,HepG2 [5],0.77 µM
same,IC50,HT-29,0.77 µM
same,IC50,C6,0.77 µM
same,IC50,BFTC-905,0.77 µM
COc1ccc2c(Cc3ccc(C(C)C)cc3)c3[n+](cc2c1O)CCc1cc2c(cc1-3)OCO2.[Cl-],MIC,Candida albicans [6],1 mg/L
COc1cc(CN2CCN(c3ccc(C)cc3C)CC2)c2cc3[n+](cc2c1O)CCc1cc2c(cc1-3)OCO2,IC50,Ca-Ski,5.75 µM
same,IC50,[7],19.8 µM
same,IC50,HeLa [8],7.33 µM
COc1cc(CN2CCN(C(c3ccccc3)c3ccccc3)CC2)c2cc3[n+](cc2c1O)CCc1cc2c(cc1-3)OCO2.[Cl-],MIC,Listeria monocytogenes,200 mg/L
COc1cc(CN2CCN(c3ccc(F)cc3F)CC2)c2cc3[n+](cc2c1O)CCc1cc2c(cc1-3)OCO2,IC50,Ca-Ski,5.75 µM
same,IC50,[7],19.8 µM
same,IC50,HeLa [8],7.33 µM
COc1cc(CN2CCN(c3ccccc3Cl)CC2)c2cc3[n+](cc2c1O)CCc1cc2c(cc1-3)OCO2.[Cl-],MIC,Listeria monocytogenes,200 mg/L
COc1ccc(N2CCN(Cc3cc(OC)c(O)c4c[n+]5c(cc34)-c3cc4c(cc3CC5)OCO4)CC2)c(OC)c1,IC50,Ca-Ski,5.75 µM
same,IC50,[7],19.8 µM
same,IC50,HeLa [8],7.33 µM
COc1cc(CN2CCN(c3cccc(Cl)c3Cl)CC2)c2cc3[n+](cc2c1O)CCc1cc2c(cc1-3)OCO2,IC50,Ca-Ski,5.75 µM
same,IC50,[7],19.8 µM
same,IC50,HeLa [8],7.33 µM
COc1cc(CN2CCN(c3ccc(Cl)c(Cl)c3)CC2)c2cc3[n+](cc2c1O)CCc1cc2c(cc1-3)OCO2,IC50,Ca-Ski,5.75 µM
same,IC50,[7],19.8 µM
same,IC50,HeLa [8],7.33 µM
COc1cc(Cn2ccnc2)c2cc3[n+](cc2c1O)CCc1cc2c(cc1-3)OCO2.[Cl-],MIC,Salmonella typhimurium,1 mg/L
COc1cc(CN2CCN(c3cccc(C)c3C)CC2)c2cc3[n+](cc2c1O)CCc1cc2c(cc1-3)OCO2,IC50,Ca-Ski,5.75 µM
same,IC50,[7],19.8 µM
same,IC50,HeLa [8],7.33 µM
COc1cc(CN2CCN(c3cccc(F)c3F)CC2)c2cc3[n+](cc2c1O)CCc1cc2c(cc1-3)OCO2,IC50,Ca-Ski,5.75 µM
same,IC50,[7],19.8 µM
same,IC50,HeLa [8],7.33 µM
COc1cc(CN2CCN(c3ccc(Cl)cc3Cl)CC2)c2cc3[n+](cc2c1O)CCc1cc2c(cc1-3)OCO2,IC50,Ca-Ski,5.75 µM
same,IC50,[7],19.8 µM
same,IC50,HeLa [8],7.33 µM
COc1ccc2cc3[n+](cc2c1OCc1cn(-c2ccc(S(=O)(=O)N4CCOCC4)cc2)nn1)CCc1cc2c(cc1-3)OCO2.[Cl-],IC50,Plasmodium falciparum,0.2 mg/L
COc1ccc2cc3[n+](cc2c1OCc1cn(-c2ccc(S(=O)(=O)Nc4ccc(F)cc4)cc2)nn1)CCc1cc2c(cc1-3)OCO2.[Cl-],IC50,Plasmodium falciparum,0.2 mg/L
COc1ccc2cc3[n+](cc2c1OCc1cn(-c2ccc(S(=O)(=O)Nc4ccc(Cl)cc4)cc2)nn1)CCc1cc2c(cc1-3)OCO2.[Cl-],IC50,Plasmodium falciparum,0.2 mg/L
COc1ccc2cc3[n+](cc2c1OCc1cn(-c2ccc(S(N)(=O)=O)cc2)nn1)CCc1cc2c(cc1-3)OCO2.[Cl-],IC50,Plasmodium falciparum,0.2 mg/L
CCCCCCN(CCCCCC)c1cc(OC)c(O)c2c[n+]3c(cc12)-c1cc2c(cc1CC3)OCO2,IC50,A549 [9],0.29 µM
COc1ccc2cc3[n+](cc2c1OCCn1cccn1)CCc1cc2c(cc1-3)OCO2,IC50,HeLa [10],8.99 µM
same,IC50,A549 [11],8.99 µM
COc1ccc2c(c1OS(=O)(=O)c1c(F)c(F)cc(F)c1F)CN1CCc3cc4c(cc3C1C2)OCO4 (stereo unspecified),IC50,DNA topoisomerase 1,1.05 µM
COc1ccc2c(c1NS(=O)(=O)c1ccc(Cl)cc1)C[N+]1(S(=O)(=O)c3ccc(Cl)cc3)CCc3cc4c(cc3C1C2)OCO4 (stereo unspecified),MIC,Escherichia coli,0.5 mg/L
COc1ccc2cc3[n+](cc2c1OCCn1nc(C)c(Cl)c1C)CCc1cc2c(cc1-3)OCO2,IC50,HeLa [10],8.99 µM
same,IC50,A549 [11],8.99 µM
COc1ccc2cc3[n+](cc2c1OCC(=O)OCc1ccccc1)CCc1cc2c(cc1-3)OCO2,IC50,Enterovirus A71,7.12 µM
COc1ccc2c(CCCc3ccccc3)c3[n+](cc2c1OC)CCc1cc2c(cc1-3)OCO2,IC50,CCRF-CEM,0.21 µM
COc1ccc2cc3[n+](cc2c1OCCn1nc(C)cc1C)CCc1cc2c(cc1-3)OCO2,IC50,HeLa [10],8.99 µM
same,IC50,A549 [11],8.99 µM
COc1ccc2cc3[n+](cc2c1OCCn1nc(C)c(Br)c1C)CCc1cc2c(cc1-3)OCO2,IC50,HeLa [10],8.99 µM
same,IC50,A549 [11],8.99 µM
CCCCCCC1c2cc(OC)c(OC)cc2C=C2c3cc4c(cc3CCN21)OCO4.Cl (stereo unspecified),MIC,[12],1 mg/L
COc1ccc2cc3[n+](cc2c1)CCc1cc(OCCOCCN)c(OC)cc1-3,IC50,Coxsackievirus B3,3.08 µM
COc1cc2c(cc1OC)C(c1ccccc1)N1CCc3cc4c(cc3C1=C2)OCO4.Cl (stereo unspecified),MIC,[12],1 mg/L
CCCCCOC(=O)COc1c(OC)ccc2cc3[n+](cc12)CCc1cc2c(cc1-3)OCO2,IC50,Enterovirus A71,7.12 µM
CCOC(=O)COc1c(OC)ccc2cc3[n+](cc12)CCc1cc2c(cc1-3)OCO2,IC50,Enterovirus A71,7.12 µM
Br.COc1ccc2c(Cc3ccccc3-c3cc4cc([N+](=O)[O-])ccc4[nH]3)c3[n+](cc2c1OC)CCc1cc2c(cc1-3)OCO2,MIC,Enterococcus faecium,3.12 mg/L
same,MIC,Enterococcus faecalis,3.12 mg/L
same,MIC,Bacillus cereus,3.12 mg/L
same,MIC,Staphylococcus aureus [13],3.12 mg/L
same,MIC,Bacillus anthracis,3.12 mg/L
CCCOc1c(OC)cc(/C=C2\SC(=O)NC2=O)c2c1CN1CCc3cc4c(cc3C1C2)OCO4 (stereo unspecified),MIC,Staphylococcus aureus [14],0.008 mg/L
O=C1O[C@H]([C@@H](O)CO)C(O)=C1O [ASCORBIC ACID],IC50,[7],61 µM
COc1ccc2cc3[n+](cc2c1OC)CCc1cc2c(cc1-3)OCO2 [BERBERINE],MIC,Staphylococcus aureus [14],0.698 mg/L
same,IC50,Ca-Ski,15.2 µM
same,IC50,[7],89.2 µM
same,IC50,HeLa [8],13.4 µM
N=C(N)c1ccc(-c2ccc(-c3ccc(C(=N)N)cc3)o2)cc1 [FURAMIDINE],IC50,DNA topoisomerase 1,1.2 µM
CCn1cc(C(=O)O)c(=O)c2cc(F)c(N3CCNCC3)cc21 [NORFLOXACIN],MIC,Staphylococcus aureus [14],0.025 mg/L
